Assay results published in US20240075017A1 (priority 2021, published 2024).

Tested on: SARS-CoV-2 (B.1.351, beta variant)
Design: species or system C57BL/6 mice
Details: mouse, in vivo

Nc1nccc2c1ncn2[C@@H]1C=C(CO)[C@@H](O)[C@H]1O [DZNep, 3-deazaneplanocin A]
abundance of viral transcripts N, M and E in lung RNA by RT-qPCR: significant DZNep-dependent reduction in abundance of viral transcripts
lung infectious viral load (titration of lung homogenate supernatant on Vero E6 cells): significant reduction of the viral load in the lungs
